Calls of active or inactive are those of the source. The rule behind the calls is not given here.
Key:
[1] = Inhibition of IL-1beta release in PMA-differentiated/ LPS and nigericin stimulated human THP-1 cells pretreated with LPS for 3 hrs followed by incubation with compound for 40 mins and later stimulated with nigericin for 40 mins by ELISA; assay type: functional, cell-based
[2] = biological target: Cytochrome P450 3A4 (Homo sapiens, UniProt P08684); experiment: Inhibition of human CYP3A4 upto 10 uM relative to control; assay type: ADME
[3] = biological target: NACHT, LRR and PYD domains-containing protein 3 (Mus musculus) (UniProt Q8R4B8); experiment: Inhibition of LPS/nigericin induced NLRP3 inflammasome activation in mouse BMDMs assessed as reduction in pyroptosis by measuring […] at 2 to 31.25 nM; assay type: cell-based; conditions: BMDM, dose 2-31.25 nM
[4] = biological target: NACHT, LRR and PYD domains-containing protein 3 (Mus musculus) (UniProt Q8R4B8); experiment: Inhibition of NLRP3 inflammasome activation in mouse BMDMs assessed as effect on NLRP3 expression at 2 to 31.25 nM pretreated with LPS for 3 hrs followed by compound addition for 40 mins; assay type: cell-based; conditions: BMDM, dose 2-31.25 nM
[5] = biological target: NACHT, LRR and PYD domains-containing protein 3 (Mus musculus) (UniProt Q8R4B8); experiment: Inhibition of NLRP3 inflammasome activation in LPS stimulated mouse BMDMs assessed as reduction in IL-1beta release at 2 to 31.25 nM pretreated with LPS for 3 hrs followed by compound addition for 40 mins prior to MSU stimulation for 6 hrs by ELISA; assay type: cell-based; conditions: BMDM, dose 2-31.25 nM, time 400.0 min
[6] = test system: Mus musculus; experiment: Inhibition of MSU crystal induced peritonitis in BALB/c mouse assessed as reduction in IL-1beta level in peritoneal lavage fluids at 50 to 100 mg/kg, ip pretreated with LPS for 3 hrs followed by compound addition prior to MSU stimulation for 6 hrs by ELISA; assay type: functional, organism-based; conditions: dose 50-100 mg/kg

Sequence of NACHT, LRR and PYD domains-containing protein 3 (Mus musculus) (Q8R4B8 whole entry, the tested form may be a part): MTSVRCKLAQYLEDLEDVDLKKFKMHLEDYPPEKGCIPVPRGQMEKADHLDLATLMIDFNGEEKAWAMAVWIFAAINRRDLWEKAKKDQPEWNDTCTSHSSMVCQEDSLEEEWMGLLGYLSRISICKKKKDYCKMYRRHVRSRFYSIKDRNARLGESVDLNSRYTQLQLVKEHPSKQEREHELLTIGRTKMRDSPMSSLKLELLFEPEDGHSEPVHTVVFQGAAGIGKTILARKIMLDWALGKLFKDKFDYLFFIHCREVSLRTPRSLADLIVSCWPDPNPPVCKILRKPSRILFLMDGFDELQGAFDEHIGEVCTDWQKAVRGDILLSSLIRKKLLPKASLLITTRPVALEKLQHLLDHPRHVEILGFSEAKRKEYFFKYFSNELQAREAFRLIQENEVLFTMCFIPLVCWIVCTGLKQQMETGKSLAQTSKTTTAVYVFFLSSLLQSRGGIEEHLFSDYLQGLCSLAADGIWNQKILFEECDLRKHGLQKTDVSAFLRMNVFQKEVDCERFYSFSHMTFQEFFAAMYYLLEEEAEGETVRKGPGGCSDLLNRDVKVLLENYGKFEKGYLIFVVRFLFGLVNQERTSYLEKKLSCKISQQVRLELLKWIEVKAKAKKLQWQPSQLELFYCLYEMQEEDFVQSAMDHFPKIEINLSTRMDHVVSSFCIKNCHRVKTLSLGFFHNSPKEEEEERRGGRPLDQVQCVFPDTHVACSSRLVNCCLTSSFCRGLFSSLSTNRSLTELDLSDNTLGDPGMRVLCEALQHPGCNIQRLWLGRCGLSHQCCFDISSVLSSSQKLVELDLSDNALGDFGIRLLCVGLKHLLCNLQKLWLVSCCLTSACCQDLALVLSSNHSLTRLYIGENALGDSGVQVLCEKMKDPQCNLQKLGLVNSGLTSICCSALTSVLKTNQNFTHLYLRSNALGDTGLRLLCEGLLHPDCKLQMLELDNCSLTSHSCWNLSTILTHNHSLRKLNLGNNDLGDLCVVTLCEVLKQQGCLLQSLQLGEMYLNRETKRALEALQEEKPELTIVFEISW
Sequence of Cytochrome P450 3A4 (P08684 whole entry, the tested form may be a part): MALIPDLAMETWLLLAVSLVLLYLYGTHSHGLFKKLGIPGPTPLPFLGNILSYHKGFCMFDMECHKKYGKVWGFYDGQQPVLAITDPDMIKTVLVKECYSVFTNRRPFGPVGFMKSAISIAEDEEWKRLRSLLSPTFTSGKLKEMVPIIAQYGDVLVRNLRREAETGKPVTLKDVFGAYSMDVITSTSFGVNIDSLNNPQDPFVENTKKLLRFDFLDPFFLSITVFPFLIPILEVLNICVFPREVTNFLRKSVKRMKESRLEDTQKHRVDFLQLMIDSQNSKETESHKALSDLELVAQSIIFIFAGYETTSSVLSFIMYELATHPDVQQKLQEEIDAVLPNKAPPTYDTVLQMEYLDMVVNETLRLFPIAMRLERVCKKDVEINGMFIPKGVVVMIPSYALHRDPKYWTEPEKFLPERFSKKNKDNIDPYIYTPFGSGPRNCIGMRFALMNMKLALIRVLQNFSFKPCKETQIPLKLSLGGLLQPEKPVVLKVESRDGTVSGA

SMILES: OCCN1CCC[C@@H](Nc2nnc(-c3ccc4occc4c3O)c3c2C2CCC3CC2)C1
- IC50 [1]: 3 nM
- inhibition (INH) [2]: Not Active
- inhibition [3]: Active
- inhibition [4]: inactive
- inhibition [5]: Active
- inhibition [6]: Active

Source: ChEMBL document CHEMBL5584341, “Discovery of Potent, Specific, and Orally Available NLRP3 Inflammasome Inhibitors Based on Pyridazine Scaffolds for the Treatment of Septic Shock and Peritonitis” (J Med Chem, 2024)
